≈ marks a conversion by molar mass, not a printed value.
Tested on: isolated guinea pig left atrium
Test: electrically-driven guinea pig left atrium contractile force assay (positive inotropic effect)
Conditions: for Ionotropic Activity (% Change of Contractile Force): at the concentration of the same line (extrapolated ED50: A 0.04, B 0.073 μg/ml)
Protocol: The forskolin derivatives of the present invention are useful in the treatment of cardiac failure by virtue of their ability to elicit a positive inotropic effect as determined in the isolated guinea pig atria contractile force assay. The electrically-driven guinea pig left atrium assay is performed as follows: Male guinea pigs weighing 200-300 grams are stunned with a blow to the back of the head. The heart is rapidly removed and placed in a petri dish containing Krebs solution. The ventricle is separated from the atria, the atria are sectioned in the right and left atria, and double-O silk ligatures are tied to the apex of the left atrium. The atrium is fixed to a pair of platinum plate electrodes and suspended in a 20-ml tissue bath containing Kreb's solution aerated with 95% oxygen-5% carbon dioxide at 37° C. One end of the atrium is fixed to a hook in the electrode and the other end is connected to a Grass FTO3 force displacement transducer. Resting tension and stabilization time are the same as described above. The atrium is stimulated at 3 Hz, 0.5 msec duration at supramaximal voltage (constant current) via a Grass S88 stimulator and constant current unit. Force of contraction is continuously displaced on a Gould recorder. Test drug is prepared and is added to the tissue baths. Change in contractile force from baseline is determined for each concentration, and the change in contractile force (g) is plotted against accumulated drug concentration (μg/ml) The activity of the test drug, i.e., the increase in contractile force (g) from the stabilized force expressed as the percentage change at a given concentration is determined graphically, as is the ED50 -value, i.e., the extrapolated dose (μg/ml) which increases the contractile force by 50% over the stabilized rate.

C=CC1(C)CC(=O)C2(O)C(C)(O1)C(Oc1ncccn1)CC1C(C)(C)CCC(O)C12C.Cl (stereo not shown) [A, 6-Deoxy-7-desacetyl-7-(pyrimidin-2-yl)forskolin hydrochloride]
Ionotropic Activity (% Change of Contractile Force): 50%
Extrapolated ED50 value (concentration which increases the contractile force by 50%) (isolated left atrium, stimulated at 3 Hz, 37° C., Krebs solution): 0.04 µg/mL

C=C[C@@]1(C)CC(=O)[C@]2(O)[C@@]3(C)[C@@H](O)CCC(C)(C)[C@@H]3[C@H](O)[C@H](OC(C)=O)[C@@]2(C)O1 [B, Forskolin]
EC50 (Cavia porcellus, isolated left atrium, stimulated at 3 Hz, 37° C., Krebs solution, read-out: Extrapolated ED50 value (concentration which increases the contractile force by 50%)): 0.073 µg/mL (≈ 0.178 µM)
Ionotropic Activity (% Change of Contractile Force): 50%

Source: patent publication US5145855A, “6- and 7-deoxyforskolin and derivatives thereof” (Hoechst Roussel Pharmaceuticals, Inc., priority 1991, dated 1992)
